# Assay results published in patent US9566290B2, “Boron-containing small molecules” (Anacor Pharmaceuticals, Inc., priority 2005, dated 2017).
row,SMILES,melting point [°C]
1,"O=C(O)COc1ccc2c(c1)COB2O [C42, 2-(1-hydroxy-1,3-dihydrobenzo[c][1,2]oxaborol-5-yloxy)acetic acid]",163 to 166
2,"OB1OCc2ccc(N(Cc3ccccc3)Cc3ccccc3)cc21 [C78, 6-(dibenzylamino)benzo[c][1,2]oxaborol-1(3H)-ol]",115 to 123
3,"Cc1ccc2c(c1)COB2O [C8, 5-methylbenzo[c][1,2]oxaborol-1(3H)-ol]",124 to 128
4,"OB1OCc2cc3c(cc21)OCO3 [C69, 5,6-methylenedioxybenzo[c][1,2]oxaborol-1(3H)-ol]",185 to 189
5,"COc1ccc(S(=O)(=O)c2ccc3c(c2)B(O)OC3)cc1 [C33, 6-(4-methoxyphenylsulfonyl)benzo[c][1,2]oxaborol-1(3H)-ol]",180 to 192
6,"OCc1cc2c(cc1Br)COB2O [C59, 5-bromo-6-(hydroxymethyl)benzo[c][1,2]oxaborol-1(3H)-ol]",> 257
7,"OB1OCc2ccc(-n3cc(Sc4ccccc4)c4ccccc43)cc21 [C66, 6-(3-(phenylthio)-1H-indol-1-yl)benzo[c][1,2]oxaborol-1(3H)-ol]",159 to 163
8,"O=C(COc1ccc2c(c1)COB2O)N1CCCCC1 [C46, 2-(1-hydroxy-1,3-dihydrobenzo[c][1,2]oxaborol-5-yloxy)-1-(piperidin-1-yl)ethanone]",158 to 163
9,"COc1ccc2c(c1)COB2O [C7, 5-methoxybenzo[c][1,2]oxaborol-1(3H)-ol]",102 to 104
10,"Cc1ccc(Sc2ccc3c(c2)B(O)OC3)cc1 [C95, 6-(p-tolylthio)benzo[c][1,2]oxaborol-1(3H)-ol]",139 to 144
11,"OB1OCc2ccc(Sc3cccs3)cc21 [C43, 6-(thiophen-2-ylthio)benzo[c][1,2]oxaborol-1(3H)-ol]",99 to 104
12,"N#Cc1cccc(COc2ccc3c(c2)COB3O)c1 [C96, 3-((1-hydroxy-1,3-dihydrobenzo[c][1,2]oxaborol-5-yloxy)methyl)benzonitrile]",147 to 150
13,"CSc1ccc(Sc2ccc3c(c2)B(O)OC3)cc1 [C94, 6-(4-(methylthio)phenylthio)benzo[c][1,2]oxaborol-1(3H)-ol]",117 to 120
14,"OB1OCc2ccc(Oc3ccc(OC(F)(F)F)cc3)cc21 [C29, 6-(4-(trifluoromethoxy)phenoxy)benzo[c][1,2]oxaborol-1(3H)-ol]",97 to 101
15,"OCc1cccc2c1B(O)OC2 [C64, 7-(hydroxymethyl)benzo[c][1,2]oxaborol-1(3H)-ol]",241 to 250
16,"OB1OCc2ccc(N3CCN(c4ccccc4)CC3)cc21 [C53, 6-(4-phenylpiperazin-1-yl)benzo[c][1,2]oxaborol-1(3H)-ol]",159 to 161
17,"CCOC(=O)COc1ccc2c(c1)COB2O [C41, Ethyl 2-(1-hydroxy-1,3-dihydrobenzo[c][1,2]oxaborol-5-yloxy)acetate]",134 to 137
18,"Nc1cc2c(cc1F)COB2O [C70, 6-amino-5-fluorobenzo[c][1,2]oxaborol-1(3H)-ol]",142 to 145
19,"OB1OCc2ccc(Oc3ccccc3)cc21 [C21, 6-phenoxybenzo[c][1,2]oxaborol-1(3H)-ol]",95 to 99

row,SMILES,melting point [°C]
1,"O=C(COc1ccc2c(c1)COB2O)N1CCN(c2ncccn2)CC1 [C47, 2-(1-hydroxy-1,3-dihydrobenzo[c][1,2]oxaborol-5-yloxy)-1-(4-(pyrimidin-2-yl)piperazin-1-yl)ethanone]",190 to 195
2,"OB1OCc2ccc(NCc3ccccc3)cc21 [C77, 6-(benzylamino)benzo[c][1,2]oxaborol-1(3H)-ol]",126 to 133
3,"N#CCCSc1cn(-c2ccc3c(c2)B(O)OC3)c2ccccc12 [C67, 3-(1-(1-hydroxy-1,3-dihydrobenzo[c][1,2]oxaborol-6-yl)-1H-indol-3-ylthio)propanenitrile]",135 to 141
4,"N#Cc1ccc(Oc2cccc3c2B(O)OC3)cc1 [C74, 4-(1-hydroxy-1,3-dihydrobenzo[c][1,2]oxaborol-7-yloxy)benzonitrile]",148 to 153
5,"CN(C)c1ccc2c(c1)B(O)OC2 [C51, 6-(dimethylamino)benzo[c][1,2]oxaborol-(3H)-ol]",120 to 123
6,"O=[N+]([O-])c1cc2c(cc1F)COB2O [C58, 5-fluoro-6-nitrobenzo[c][1,2]oxaborol-1(3H)-ol]",162 to 167
7,"OB1OCc2ccc(N3CCN(c4ccccn4)CC3)cc21 [C48, 6-(4-(pyridin-2-yl)piperazin-1-yl)benzo[c][1,2]oxaborol-1(3H)-ol]",135 to 138
8,"OB1OCc2ccc(-n3ccc4ccccc43)cc21 [C55, 6-(1H-indol-1-yl)benzo[c][1,2]oxaborol-1(3H)-ol]",135 to 140
9,"[O-][S+](c1ccc(Cl)cc1)c1ccc2c(c1)B(O)OC2 (centres unmarked) [C89, 6-(4-chlorophenylsulfinyl)benzo[c][1,2]oxaborol-1(3H)-ol]",154 to 161
10,"COc1ccc2c(c1)c(Sc1ccccc1)cn2-c1ccc2c(c1)B(O)OC2 [C72, 6-(5-methoxy-3-(phenylthio)-1H-indol-1-yl)benzo[c][1,2]oxaborol-1(3H)-ol]",135 to 141
11,"O=C(Nc1ccc2c(c1)B(O)OC2)c1ccccc1 [C52, N-(1-hydroxy-1,3-dihydrobenzo[c][1,2]oxaborol-6-yl)benzamide]",186 to 193
12,"OB1OCc2ccc(F)cc21 [C13, 6-fluorobenzo[c][1,2]oxaborol-1(3H)-ol]",110 to 117.5
13,"OB1OCc2ccc(-n3cc(Sc4ccccc4)c4cc(Cl)ccc43)cc21 [C80, 6-(5-chloro-3-(phenylthio)-1H-indol-1-yl)benzo[c][1,2]oxaborol-1(3H)-ol]",145 to 151
14,"CN(c1ccc2c(c1)COB2O)S(=O)(=O)c1ccccc1 [C30, N-(1-hydroxy-1,3-dihydrobenzo[c][1,2]oxaborol-5-yl)-N-methylbenzenesulfonamide]",85 to 95
15,"N#Cc1cccc(Oc2ccc3c(c2)B(O)OC3)c1 [C19, 3-(1-hydroxy-1,3-dihydrobenzo[c][1,2]oxaborol-6-yloxy)benzonitrile]",146 to 149
16,"Cc1cccc2c1B(O)OC2 [C65, 7-methylbenzo[c][1,2]oxaborol-1(3H)-ol]",107 to 111
17,"COc1ccc2c(c1)c(SCCC#N)cn2-c1ccc2c(c1)B(O)OC2 [C73, 3-(1-(1-hydroxy-1,3-dihydrobenzo[c][1,2]oxaborol-6-yl)-5-methoxy-1H-indol-3-ylthio)propanenitrile]",149 to 154
18,"OB1OCc2cc(F)c(NCc3ccccc3)cc21 [C71, 6-(benzylamino)-5-fluorobenzo[c][1,2]oxaborol-1(3H)-ol]",159 to 164

# Further lines, results first:
row,melting point [°C],SMILES
1,121 to 124,"OB1OCc2ccc(Sc3ccccc3)cc21 [C28, 6-(phenylthio)benzo[c][1,2]oxaborol-1(3H)-ol]"
2,176 to 185,"CC(=O)Nc1ccc2c(c1)B(O)OC2 [C63, N-(1-hydroxy-1,3-dihydrobenzo[c][1,2]oxaborol-6-yl)acetamide]"
3,175 to 184,"O=S(=O)(Nc1ccc2c(c1)B(O)OC2)c1ccccc1 [C62, N-(1-hydroxy-1,3-dihydrobenzo[c][1,2]oxaborol-6-yl)benzenesulfonamide]"
4,120 to 124,"OB1OCc2cccc(F)c21 [C86, 7-fluorobenzo[c][1,2]oxaborol-1(3H)-ol]"
5,119 to 130,"OB1OCc2ccc(Oc3ccc(Cl)cc3)cc21 [C20, 6-(4-chlorophenoxy)benzo[c][1,2]oxaborol-1(3H)-ol]"
6,126 to 129,"COc1ccc(Oc2ccc3c(c2)B(O)OC3)cc1 [C31, 6-(4-methoxyphenoxy)benzo[c][1,2]oxaborol-1(3H)-ol]"
7,157 to 163,"O=S(=O)(c1ccc(Cl)cc1)c1ccc2c(c1)B(O)OC2 [C90, 6-(4-chlorophenylsulfonyl)benzo[c][1,2]oxaborol-1(3H)-ol]"
8,96 to 98,"CCCCC(=O)c1cccc(COc2ccc3c(c2)COB3O)c1 [C45, 1-(3-((1-hydroxy-1,3-dihydrobenzo[c][1,2]oxaborol-5-yloxy)methyl)phenyl)pentan-1-one]"
9,111 to 113,"OB1OCc2ccc(Sc3ccc(C(F)(F)F)cc3)cc21 [C92, 6-(4-(trifluoromethyl)phenylthio)benzo[c][1,2]oxaborol-1(3H)-ol]"
10,157 to 161,"OB1OCc2ccc(Sc3ccc(Cl)cc3)cc21 [C88, 6-(4-chlorophenylthio)benzo[c][1,2]oxaborol-1(3H)-ol]"
11,149 to 154,"OB1OCc2ccc(-n3ccc4cc(Cl)ccc43)cc21 [C75, 6-(5-chloro-1H-indol-1-yl)benzo[c][1,2]oxaborol-1(3H)-ol]"
12,> 250,"OB1OCc2cc3c(cc21)COB3O [C60, 3,7-dihydro-1,5-dihydroxy-1H,3H-Benzo[2-c: 4,5-c′]bis[1,2]oxaborole]"
13,> 225,"N#CCCSc1cn(-c2ccc3c(c2)B(O)OC3)c2ccc(Cl)cc12 [C76, 3-(5-chloro-1-(1-hydroxy-1,3-dihydrobenzo[c][1,2]oxaborol-6-yl)-1H-indol-3-ylthio)propanenitrile]"
14,95 to 100,"COc1ccc(Sc2ccc3c(c2)B(O)OC3)cc1 [C32, 6-(4-methoxyphenylthio)benzo[c][1,2]oxaborol-1(3H)-ol]"
15,98 to 105,"OB1OCc2ccc(Oc3ccc(C(F)(F)F)cc3)cc21 [C87, 6-(4-(trifluoromethyl)phenoxy)benzo[c][1,2]oxaborol-1(3H)-ol]"
16,139 to 143,"OB1OCc2ccc3ccccc3c21 [C11, naphtho[1,2-c][1,2]oxaborol-1(3H)-ol]"
17,128 to 132,"OB1OCc2ccc(N3CCOCC3)cc21 [C56, 6-morpholinobenzo[c][1,2]oxaborol-1(3H)-ol]"
18,142 to 152,"O=S(=O)(c1ccccc1)N(c1ccc2c(c1)COB2O)S(=O)(=O)c1ccccc1 [C91, N-(1-hydroxy-1,3-dihydrobenzo[c][1,2]oxaborol-5-yl)-N-(phenylsulfonyl)benzenesulfonamide]"
19,135 to 138,"OB1OCc2ccc(Sc3ccc(F)cc3)cc21 [C44, 6-(4-fluorophenylthio)benzo[c][1,2]oxaborol-1(3H)-ol]"
